Experiments:
[1] = biological target: Delta-type opioid receptor (Homo sapiens, UniProt P41143); assay: Displacement of [3H]diprenorphine from human DOP receptor expressed in CHO cell membrane; type: cell membranes
[2] = biological target: Kappa-type opioid receptor (Homo sapiens, UniProt P41145); assay: Displacement of [3H]diprenorphine from human KOP receptor expressed in CHO cell membrane; type: cell membranes
Mu-type opioid receptor = Mu-type opioid receptor (Homo sapiens, UniProt P35372); assay: Displacement of [3H]diprenorphine from human MOP receptor expressed in CHO cell membrane; type: cell membranes
Mu-type opioid receptor, sequence (P35372 whole entry): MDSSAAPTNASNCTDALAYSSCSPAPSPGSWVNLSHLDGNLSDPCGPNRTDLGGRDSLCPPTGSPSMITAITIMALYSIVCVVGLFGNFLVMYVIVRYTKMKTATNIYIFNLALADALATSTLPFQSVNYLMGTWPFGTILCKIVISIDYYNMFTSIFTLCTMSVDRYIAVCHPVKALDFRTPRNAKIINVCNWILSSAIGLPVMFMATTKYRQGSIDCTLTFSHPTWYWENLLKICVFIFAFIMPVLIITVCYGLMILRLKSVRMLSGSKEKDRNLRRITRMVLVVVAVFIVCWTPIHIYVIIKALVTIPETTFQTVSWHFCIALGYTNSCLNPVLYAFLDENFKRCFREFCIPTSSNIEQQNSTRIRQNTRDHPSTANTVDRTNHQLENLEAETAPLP

Nociceptin receptor [3] = biological target: T1, Nociceptin receptor (Homo sapiens, UniProt P41146); assay: Displacement of [125I][Tyr14]nociceptin FQ from human NOP receptor expressed in CHO cell membrane; type: cell membranes
T1 sequence (P41146 whole entry): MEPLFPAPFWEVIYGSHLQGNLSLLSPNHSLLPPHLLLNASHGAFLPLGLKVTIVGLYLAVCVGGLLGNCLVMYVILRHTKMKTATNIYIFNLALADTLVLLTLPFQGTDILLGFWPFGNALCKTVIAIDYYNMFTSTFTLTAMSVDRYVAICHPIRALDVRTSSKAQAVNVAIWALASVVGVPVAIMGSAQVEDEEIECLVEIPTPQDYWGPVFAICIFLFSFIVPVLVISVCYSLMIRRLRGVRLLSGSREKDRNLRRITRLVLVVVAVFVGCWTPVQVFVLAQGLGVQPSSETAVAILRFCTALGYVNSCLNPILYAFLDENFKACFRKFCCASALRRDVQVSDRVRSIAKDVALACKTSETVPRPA

Nociceptin receptor [4] = biological target: T1, Nociceptin receptor; assay: Agonist activity at human NOP receptor transfected in CHO cells assessed as stimulation of [35S]GTP-gamma-S at 100 uM; type: functional, cell-based
Nociceptin receptor [5] = biological target: T1, Nociceptin receptor; assay: Agonist activity at human NOP receptor transfected in CHO cells assessed as stimulation of [35S]GTPgammaS at 1 uM; type: functional, cell-based
Nociceptin receptor [6] = biological target: T1, Nociceptin receptor; assay: Agonist activity at human NOP receptor transfected in CHO cells assessed as stimulation of [35S]GTP-gamma-S at 0.1 uM; type: functional, cell-based
Nociceptin receptor [7] = biological target: T1, Nociceptin receptor; assay: Activity at human NOP receptor transfected in CHO cells assessed as inhibition of [35S]GTPgammaS at 10 uM; type: functional, cell-based
Nociceptin receptor [8] = biological target: T1, Nociceptin receptor; assay: Activity at human NOP receptor transfected in CHO cells assessed as inhibition of [35S]GTP-gamma-S at 1 uM; type: functional, cell-based

Delta-type opioid receptor, sequence (P41143 whole entry): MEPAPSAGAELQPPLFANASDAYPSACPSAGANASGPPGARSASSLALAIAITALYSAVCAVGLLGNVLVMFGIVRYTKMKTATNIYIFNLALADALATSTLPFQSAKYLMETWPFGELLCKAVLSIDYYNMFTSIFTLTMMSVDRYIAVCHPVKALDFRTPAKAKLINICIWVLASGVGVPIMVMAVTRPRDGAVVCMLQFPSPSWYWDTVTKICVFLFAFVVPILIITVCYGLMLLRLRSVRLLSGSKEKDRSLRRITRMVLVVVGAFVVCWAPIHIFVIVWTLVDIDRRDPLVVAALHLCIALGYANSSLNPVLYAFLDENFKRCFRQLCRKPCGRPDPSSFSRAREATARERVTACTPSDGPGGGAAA
Kappa-type opioid receptor, sequence (P41145 whole entry): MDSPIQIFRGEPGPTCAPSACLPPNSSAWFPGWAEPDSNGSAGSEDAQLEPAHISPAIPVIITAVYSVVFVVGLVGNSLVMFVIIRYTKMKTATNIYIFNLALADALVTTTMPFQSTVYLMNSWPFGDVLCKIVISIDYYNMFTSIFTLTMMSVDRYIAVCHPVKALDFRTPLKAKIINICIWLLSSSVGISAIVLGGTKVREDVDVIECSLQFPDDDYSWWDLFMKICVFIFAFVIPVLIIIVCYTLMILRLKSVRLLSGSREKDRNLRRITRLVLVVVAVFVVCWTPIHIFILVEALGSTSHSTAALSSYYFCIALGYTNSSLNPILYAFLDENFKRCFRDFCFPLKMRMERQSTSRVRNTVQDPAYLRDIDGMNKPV

SMILES	Ki [1] [nM]	Ki [2] [nM]	Ki (Mu-type opioid receptor) [nM]	Ki (Nociceptin receptor [3]) [nM]	other results
N#Cc1ccc(C2(O)CCN(C(c3ccccc3)c3ccccc3)CC2)cc1	28400	61000	8380	1450	–
OCc1ccccc1C1(O)CCN(C(c2ccccc2)c2ccccc2)CC1	4360	2770	186	16	–
Cc1cccc(C2(O)CCN(C(c3ccccc3)c3ccccc3)CC2)c1	7800	1150	273	27	–
CCCCc1ccc(C2(O)CCN(C(c3ccccc3)c3ccccc3)CC2)cc1	–	–	–	9160	–
CCCCC1(O)CCN(C(c2ccccc2)c2ccccc2)CC1	18800	4560	272	23	–
Cc1ccc(C(c2ccc(C)cc2)N2CCC(O)(c3ccccc3CN)CC2)cc1	8900	1060	502	110	–
OC1(c2cccc(F)c2)CCN(C(c2ccccc2)c2ccccc2)CC1	5610	1990	705	23	Activity (Nociceptin receptor [4]): 61%
CN(C)c1ccc(C2(O)CCN(C(c3ccccc3)c3ccccc3)CC2)cc1	–	–	–	4540	–
CCCCCCC1(O)CCN(C(c2ccccc2)c2ccccc2)CC1	17900	9220	8900	1150	–
NCc1ccccc1C1(O)CCN(C(c2ccc(Cl)cc2)c2ccc(Cl)cc2)CC1	3990	2090	3080	674	–
NCc1ccccc1C1(O)CCN(C(c2ccccc2Cl)c2ccccc2Cl)CC1	3000	747	249	0.5	Activity (Nociceptin receptor [5]): 102%
OC1(CCCc2ccccc2)CCN(C(c2ccccc2)c2ccccc2)CC1	13800	1800	3360	1670	–
COc1ccc(C2(O)CCN(C(c3ccccc3)c3ccccc3)CC2)cc1	19200	10300	11100	588	–
OC1(c2ccc(Br)cc2)CCN(C(c2ccccc2)c2ccccc2)CC1	15200	2610	1060	51	–
NCc1ccccc1C1(O)CCN(C(c2ccccc2F)c2ccccc2F)CC1	3700	116	37	0.5	–
Cc1ccc(C2(O)CCN(C(c3ccccc3)c3ccccc3)CC2)cc1	12100	4050	940	55	–
OC1(c2ccccc2F)CCN(C(c2ccccc2)c2ccccc2)CC1	5610	1740	589	34	–

SMILES	Ki [1] [nM]	Ki [2] [nM]	Ki (Mu-type opioid receptor) [nM]	Ki (Nociceptin receptor [3]) [nM]	other results
CCCc1ccc(C2(O)CCN(C(c3ccccc3)c3ccccc3)CC2)cc1	33300	19700	11400	1750	–
OC1(c2ccc(Cl)cc2)CCN(C(c2ccccc2)c2ccccc2)CC1	6360	1700	936	24	–
OC1(c2cccs2)CCN(C(c2ccccc2)c2ccccc2)CC1	8450	3410	1730	48	–
OC1(C2CC2)CCN(C(c2ccccc2)c2ccccc2)CC1	131000	26400	18400	376	–
CCc1ccc(C2(O)CCN(C(c3ccccc3)c3ccccc3)CC2)cc1	24900	11400	3430	1280	–
Cc1ccsc1C1(O)CCN(C(c2ccccc2)c2ccccc2)CC1	8880	2570	756	15	–
OC1(Cc2ccccc2)CCN(C(c2ccccc2)c2ccccc2)CC1	15000	1440	10400	2180	–
CCCCCC(c1ccccc1)N1CCC(O)(c2ccccc2CN)CC1 (configuration not stated)	606	30	2	0.5	–
OC1(C2CCCCC2)CCN(C(c2ccccc2)c2ccccc2)CC1	8110	387	407	17	Activity (Nociceptin receptor [4]): 121%
COc1cccc(C2(O)CCN(C(c3ccccc3)c3ccccc3)CC2)c1	9590	3670	2990	180	–
NCc1ccccc1C1(O)CCN(Cc2ccccc2)CC1	–	–	–	455	–
COc1ccccc1C1(O)CCN(C(c2ccccc2)c2ccccc2)CC1	4390	4160	983	85	–
OC1(c2ccco2)CCN(C(c2ccccc2)c2ccccc2)CC1	14500	9640	4550	136	–
OC1(c2ccccn2)CCN(C(c2ccccc2)c2ccccc2)CC1	45600	13200	11500	313	–
CC(C)C1(O)CCN(C(c2ccccc2)c2ccccc2)CC1	52800	7390	13200	433	–
CC(C)(C)C1(O)CCN(C(c2ccccc2)c2ccccc2)CC1	56600	1070	3600	62	–
OC1(c2nccs2)CCN(C(c2ccccc2)c2ccccc2)CC1	–	–	–	1270	–

Continued by falling Ki (Nociceptin receptor [3]), values first:

Ki [1] [nM]	Ki [2] [nM]	Ki (Mu-type opioid receptor) [nM]	Ki (Nociceptin receptor [3]) [nM]	SMILES	other results
777	122	271	15	CCCS(=O)(=O)NCc1ccccc1C1(O)CCN(C(c2ccccc2Cl)c2ccccc2Cl)CC1	–
3320	759	771	14	OC1(c2ccc(F)cc2)CCN(C(c2ccccc2)c2ccccc2)CC1	–
2440	330	304	12	CCNC(=O)NCc1ccccc1C1(O)CCN(C(c2ccccc2Cl)c2ccccc2Cl)CC1	–
1670	818	74	11	Cc1ccccc1C1(O)CCN(C(c2ccccc2)c2ccccc2)CC1	Activity (Nociceptin receptor [4]): 69%
9380	771	616	9.6	NCc1ccccc1C1(O)CCN(C(c2cccc(F)c2)c2cccc(F)c2)CC1	–
2910	323	120	5.9	OC1(c2ccccc2CN2CCOCC2)CCN(C(c2ccccc2Cl)c2ccccc2Cl)CC1	–
23400	1350	181	5.5	CC1(C)CCC(N2CCC(O)(c3ccccc3CN)CC2)c2ccccc21 (configuration not stated)	inhibition (Nociceptin receptor [7]): 43%
99500	664	452	4.6	NCc1ccccc1C1(O)CCN(CC2CCCCCC2)CC1	inhibition (Nociceptin receptor [8]): 67%
518	174	163	4.1	CC(C)S(=O)(=O)NCc1ccccc1C1(O)CCN(C(c2ccccc2Cl)c2ccccc2Cl)CC1	–
1700	139	190	2.2	CN1CCN(Cc2ccccc2C2(O)CCN(C(c3ccccc3Cl)c3ccccc3Cl)CC2)CC1	–
1990	215	198	2	CNC(=O)NCc1ccccc1C1(O)CCN(C(c2ccccc2Cl)c2ccccc2Cl)CC1	–
1170	261	145	1.9	OC1(c2ccccc2CN2CCNCC2)CCN(C(c2ccccc2Cl)c2ccccc2Cl)CC1	–
3200	278	616	1.8	NCc1ccccc1C1(O)CCN(C(c2ccccc2Br)c2ccccc2Br)CC1	Activity (Nociceptin receptor [5]): 104%
13900	1660	125	1.6	NCc1ccccc1C1(O)CCN(C(c2ccccc2)c2ccccc2)CC1	Ki ([1]; cho): 13900 nM; Ki ([2]; cho): 1660 nM; Ki (Mu-type opioid receptor; cho): 125 nM; Ki (Nociceptin receptor [3]; cho): 1.6 nM
3290	279	72	1.1	NCc1ccccc1C1(O)CCN(C(c2ccccc2)c2ccccc2Br)CC1 (configuration not stated)	Activity (Nociceptin receptor [5]): 115%
1590	146	351	0.9	CCS(=O)(=O)N1CCN(Cc2ccccc2C2(O)CCN(C(c3ccccc3Cl)c3ccccc3Cl)CC2)CC1	–
3820	255	167	0.7	CNCc1ccccc1C1(O)CCN(C(c2ccccc2Cl)c2ccccc2Cl)CC1	–
2870	725	28	0.7	Cc1ccccc1C(c1ccccc1)N1CCC(O)(c2ccccc2CN)CC1 (configuration not stated)	Activity (Nociceptin receptor [6]): 119%
3160	186	353	0.6	CC(C)S(=O)(=O)N1CCN(Cc2ccccc2C2(O)CCN(C(c3ccccc3Cl)c3ccccc3Cl)CC2)CC1	–
3700	425	72	0.5	NCc1ccccc1C1(O)CCN(C(c2ccccc2)c2ccccc2Cl)CC1 (configuration not stated)	Activity (Nociceptin receptor [6]): 116%
8440	450	190	0.5	Cc1ccccc1C(c1ccccc1C)N1CCC(O)(c2ccccc2CN)CC1	Activity (Nociceptin receptor [5]): 94%
1210	15	2	0.4	CCCCC(c1ccccc1)N1CCC(O)(c2ccccc2CN)CC1 (configuration not stated)	–

Source: ChEMBL document CHEMBL1147989, “Synthesis and structure-activity relationships of 4-hydroxy-4-phenylpiperidines as nociceptin receptor ligands: Part 2” (Bioorg Med Chem Lett, 2007)
